Source: patent US8884061B2, “Compositions and methods of use of electron transport system inhibitors” (priority 2006, dated 2014)
pIC50: −log10 of the molar value. In brackets after ≈: the same amount, converted by molar mass.

Experiments:
MenA = MenA (Mycobacterium tuberculosis, UniProt P9WIP3); experiment: In vitro assay against MenA (membrane fractions); format: biochemical; conditions: membrane fractions from M. tuberculosis; 5 μM farnesyl diphosphate, 50 μM dihydroxynaphthoic acid, pH 8.5; read-out: IC50 (μmol) MenA
M. tuberculosis H37Rv [1] = experiment: MIC, colorimetric microtiter plate method with Alamar blue; format: cell-based; conditions: Mycobacterium tuberculosis, read-out: MIC (μg/mL) M. tuberculosis
Procedure: Activity Against M. Tuberculosis
The minimum inhibitory concentration (MIC) of compounds were determined against H37Rv by a colorimetric microtiter plate based method with Alamar blue.

M. tuberculosis H37Rv [2] = experiment: MIC, agar (7H11) dilution method; format: cell-based; conditions: Mycobacterium tuberculosis, H37RV, M. tuberculosis H37Rv, read-out: Minimum inhibitory concentrations (MIC)
M. tuberculosis Kurono = experiment: MIC, agar (7H11) dilution method; format: cell-based; conditions: Mycobacterium tuberculosis; M. tuberculosis Kurono; agar (7H11) dilution; read-out: Minimum inhibitory concentrations (MIC)
M. bovis BCG Tokyo = experiment: microbe, parasite or virus in culture; format: cell-based; conditions: Mycobacterium tuberculosis variant bovis BCG, BCG, read-out: Minimum inhibitory concentrations (MIC)
M. avium Flamingo = experiment: MIC, agar (7H11) dilution method; format: cell-based; conditions: Mycobacterium avium, read-out: Minimum inhibitory concentrations (MIC)
[3] = system: M. intracellularae ATCC 15984; experiment: MIC, agar (7H11) dilution method; format: cell-based; conditions: read-out: Minimum inhibitory concentrations (MIC)
M. kansasii NIHJ1619 = experiment: MIC, agar (7H11) dilution method; format: cell-based; conditions: Mycobacterium kansasii, read-out: Minimum inhibitory concentrations (MIC)
M. aurum = experiment: MIC, agar (7H11) dilution method; format: cell-based; conditions: Mycolicibacterium aurum, read-out: Minimum inhibitory concentrations (MIC)
M. fortuitum NIHJ1615 = experiment: MIC, agar (7H11) dilution method; format: cell-based; conditions: Mycolicibacterium fortuitum, read-out: Minimum inhibitory concentrations (MIC)
M. smegmatis Takeo = experiment: MIC, agar (7H11) dilution method; format: cell-based; conditions: Mycolicibacterium smegmatis, read-out: Minimum inhibitory concentrations (MIC)

MenA, sequence (P9WIP3 whole entry): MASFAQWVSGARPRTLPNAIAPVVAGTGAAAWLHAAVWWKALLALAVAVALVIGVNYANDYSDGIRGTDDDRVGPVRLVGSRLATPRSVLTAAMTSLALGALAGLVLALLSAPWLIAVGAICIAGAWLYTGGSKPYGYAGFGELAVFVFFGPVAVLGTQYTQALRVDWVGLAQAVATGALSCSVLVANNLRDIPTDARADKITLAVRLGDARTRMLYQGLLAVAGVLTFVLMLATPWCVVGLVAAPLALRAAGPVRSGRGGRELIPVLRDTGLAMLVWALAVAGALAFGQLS

C=CCN(C)CCCCCCCCOc1ccc(C(=O)c2ccc(Cl)cc2)c(O)c1 [Cpd 13, (4-(8-(allyl(methyl)amino)octyloxy)-2-hydroxyphenyl)(4-chlorophenyl)methanone]
pIC50 (MenA): > 5.60
MIC (M. tuberculosis H37Rv [1]): 0.2 µg/mL (≈ 0.465 µM)

NNC(=O)c1ccncc1 [INH, isoniazid, reference compound]
MIC (M. tuberculosis H37Rv [2]; table line r8 (2nd of 5 so labelled)): 0.1 µg/mL (≈ 0.729 µM)
MIC (M. tuberculosis H37Rv [2]; table line r9 (3rd of 5 so labelled)): > 25 µg/mL
MIC (M. tuberculosis H37Rv [2]; table line r10 (4th of 5 so labelled)): 0.05 µg/mL (≈ 0.365 µM)
MIC (M. tuberculosis H37Rv [2]; table line r11 (5th of 5 so labelled)): 0.1 µg/mL (≈ 0.729 µM)
MIC (M. tuberculosis Kurono): 0.05 µg/mL (≈ 0.365 µM)
MIC (M. bovis BCG Tokyo): 0.1 µg/mL (≈ 0.729 µM)
MIC (M. avium Flamingo): > 25 µg/mL
MIC [3]: 12.5 µg/mL (≈ 91.1 µM)
MIC (M. kansasii NIHJ1619): 12.5 µg/mL (≈ 91.1 µM)
MIC (M. aurum): 6.25 µg/mL (≈ 45.6 µM)
MIC (M. fortuitum NIHJ1615): 6.25 µg/mL (≈ 45.6 µM)
MIC (M. smegmatis Takeo): 12.5 µg/mL (≈ 91.1 µM)

C=CCN(C)CCCCCCCCOc1ccc(C(O)c2ccc(Br)cc2)cc1 (centres unmarked) [Cpd 4]
pIC50 (MenA): 4.92
MIC (M. tuberculosis H37Rv [1]): 7 µg/mL (≈ 15.2 µM)

CN(CCCCCCCCOc1ccc(C(=O)c2ccc(Cl)cc2)c(Cl)c1)Cc1ccccc1 [Cpd 12]
pIC50 (MenA): 4.89
MIC (M. tuberculosis H37Rv [1]): 12 µg/mL (≈ 24.1 µM)

C=CCN(C)CCCCCCCCOc1ccc(C(O)c2ccc(Cl)cc2)cc1 (centres unmarked) [Cpd 6, (4-(8-(allyl(methyl)amino)octyloxy)phenyl)(4-chlorophenyl)methanol]
pIC50 (MenA): 5.00
MIC (M. tuberculosis H37Rv [1]): 3 µg/mL (≈ 7.21 µM)

C=CCN(C)CCCCCCCCOc1ccc(C(=O)c2ccc(Br)cc2)cc1 [Cpd 2]
pIC50 (MenA): 5.00
MIC (M. tuberculosis H37Rv [1]): 4 µg/mL (≈ 8.73 µM)

C=CCN(C)CCCCCCCOc1ccc(C(=O)c2ccc(Br)cc2)cc1 [Cpd 1, (4-(7-(allyl(methyl)amino)heptyloxy)phenyl)(4-bromophenyl)methanone]
pIC50 (MenA): 4.92
MIC (M. tuberculosis H37Rv [1]): 5 µg/mL (≈ 11.3 µM)

C=CCN(C)CCCCCCCCOc1ccc(C(=O)c2ccc(Cl)cc2Cl)cc1 [Cpd 7, (4-(8-(Allyl(methyl)amino)octyloxy)phenyl)(2,4-dichlorophenyl)methanone]
pIC50 (MenA): 5.00
MIC (M. tuberculosis H37Rv [1]): 4 µg/mL (≈ 8.92 µM)
